The test system of series [1] is P3x63Ag8.653. The series can be described thus: Cell proliferation analysis (MTT). It is filed as cell-based, murine. The settings on record: Mus musculus, 48 h, read-out: Anti-proliferative activity IC50, P3x63Ag8.653. The method, then: All tumor cell lines in the current research were grown in a certain growth medium containing 10% FBS and 1% (v/v/v) penicillin–streptomycin–amphotericin at 37 °C in 5% CO2. Cells were seeded into 96-well plates at a density of 8 × 10^3 cells per well for tumor adherent cells and 2 × 10^4 cells per well for tumor-suspended cells in a final volume of 100 μL. After 12 h, 100 μL of various concentrations of compounds was added to each and incubated for 48 h. A 0.5% MTT solution was added per well before the intermixture was incubated for another 4 h, and formazan formed from MTT was extracted by adding […] of DMSO rocking for 15 min. Absorbance was measured at 570 nm using a Spark multimode microplate from Tecan. The IC50 values were calculated according to the inhibition ratios.

Series [2] concerns MM1.S cells. The series can be described thus: Cell cycle assay (PI flow cytometry). The conditions noted are these: MM1.S, 1, 2 and 4 µM, 48 h. The class given is cell-based. The method, then: For the cell cycle assay, MM1.S cells were plated in 6-well plates with a density of 2.5 × 10^6 cells per well. A total of 12 h later, BC-05 (1, 2, and 4 μM), ixazomib (10 nM), or a vehicle (0.5% DMSO) was added, and the mixture was incubated for 48 h. Subsequently, cells were harvested, washed with cold PBS, and fixed in 75% cold ethanol at −20 °C overnight. After washing off the ethanol, fixed cells were treated with RNase A, dyed with propidium iodide solution (20 μg/mL), and incubated in the dark at 37 °C for 30 min. The final assay was analyzed using a Beckman flow cytometer.

For series [3], the target named is T1, CD13 from Porcine Kidney (Sus scrofa, UniProt P15145).
T1 construct: purchased Sigma Chemical Co., St. Louis, MO, USA
Kind of series: CD13 inhibition assay (porcine aminopeptidase, L-leucine-p-nitroanilide). It is filed as biochemical. The settings on record: mean ± SD, n ≥ 3; read-out: IC50 toward CD13 from Porcine Kidney. As for the experimental part: L-leucine-p-nitroanilide can be degraded by recombinant human aminopeptidase (R&D systems) or procine aminopeptidase (Sigma Chemical Co., St. Louis, MO, USA) and produce light absorption at 405 nm. The CD13 inhibitory activity of synthetic compounds was identified according to the degree of degradation of L-leucine-p-nitroanilide. L-leucine-p-nitroanilide was dissolved in DMSO and mixed with tested compounds in a transparent 96-well plate; then, aminopeptidase was added using phosphate solution (pH 7.2) as the assay buffer. After incubation at 37 °C for 30 min, the absorption was detected under a 405 nm wavelength via Tecan Spark multimode microplate.

The nature of series [4]: Acute toxicity experiment (single oral dose). The settings on record: for Survival Animals: 7 days, n = 10. It is filed as in vivo. From the text:
The mouse mortality was monitored daily and recorded up to 7 days after treatment.

The nature of series [5]: Subacute toxicity experiment. It is filed as in vivo. The settings on record: SD rats, male and female, 0.006, 0.02 and 0.06 mmol/kg p.o. twice a week, 30 days. The method, then: The animal experiments were conducted under the guidelines of the “Regulations for the Administration of Affairs Concerning Experimental Animals” (revised 2017, State Council No. 676). For the subacute toxicity study, 12 male and 12 female SD rats (purchased from the Weifang Medical University) were randomly divided into three treatment groups and a control group (n = 6, half male and half female). The rats in treatment groups were given 0.06 mmol/kg (p.o. BIW), 0.02 mmol/kg (p.o. BIW), and 0.006 mmol/kg (p.o. BIW) BC-05, respectively, for 30 days, while the rats in control groups were treated with the same volume of a vehicle solution. The rats were weighed each day and dissected at day 30. Behavioral abnormalities such as lethargy, ruffled fur, anorexia, clonic convulsion, and diarrhea were recorded throughout the entire experimental period.

The test system of series [6] is P21WAF1/Cip1 in MM1.S cells. The series can be described thus: Western blot analysis, P21. The class given is cell-based. The settings on record: 24 h. As for the experimental part: MM1.S cells were seeded in 6-well plates with a density of 2.5 × 10^6 cells/well. Then, the cells were cultured with 1, 2, and 4 μM BC-05 and 10 nM ixazomib, respectively. After incubation for 24 h, the cells were collected, and total proteins were extracted via RIPA containing a 2% protease inhibitor cocktail. Cell lysates were centrifugated at 4 °C, 12,000 rpm for 15 min, and the supernatants were collected and quantified with BCA assay. After being boiled at 100 °C for 10 min in a NuPAGE lithium dodecyl sulfate (LDS) sample buffer (5X), equivalent samples were separated by 12% sodium dodecyl-sulfate polyacrylamide gel electrophoresis at 120 V, transferred to immune-blot poly(vinylidene fluoride) (PVDF) membranes (Merck Millipore, Burlington, MA, USA) at 4 °C and then blocked by 5% non-fat milk in TBST for an hour. The membranes were incubated overnight at 4 °C with certain primary antibodies, which were deliquates by an antibody dilution buffer (Boster Bio, Pleasanton, CA, USA) and then washed with TBST. After incubating with a horseradish (HRP)-conjugated secondary antibody for 1 h at room temperature, the membranes were washed five times with TBST for 5 min. The images were visualized on the Tanon-5200 Chemiluminescent Imaging System via luminol reaction. […]

Series [7] can be described thus: In vivo pharmacokinetics. The conditions noted are these: SD rats; for AUC(0-inf): SD. The method, then: The animal experiments were conducted under the guidelines of the “Regulations for the Administration of Affairs Concerning Experimental Animals” (revised 2017, State Council No. 676). The pharmacokinetic properties (PK) were performed in SD rats, and the procedures conducted were in accordance with institutional guidelines. Male SD rats (weighting 200 ± 20 g) fasted for 12 h and were divided into two groups, three in each group: oral administration of BC-05 (10 mg/kg) and intravenous administration of BC-05 (10 mg/kg). A total of 300 μL of a blood sample was collected through retro-orbital plexus from the rats in each group at 0 h, 0.033 h, 0.167 h, 0.5 h, 0.75 h, l h, 2 h, 4 h, 6 h, 8 h, 10 h, and 24 h. Plasma samples were placed in microcentrifuge tubes containing Li-heparin to avoid coagulant, separated by centrifugation at 12,000 rpm for 10 min, and stored at −80 °C until sample analysis. After the precipitation of proteins, samples were centrifuged at 15,000 rpm for 10 min, and the supernatant was reserved for HPLC-MS/MS analysis.

The mark [8] stands for this setting: male, rat, plasma, iv, i.v. at 10 mg/kg, n = 3.
The mark [9] stands for this setting: male, rat, plasma, oral at 10 mg/kg, n = 3.

We go through one compound from PMC10489073 (Molecules, 2023).

What is called IC50 is the midpoint of a concentration-inhibition curve. Usually LD50 stands for the dose at which mortality reaches 50%. What is called AUC(0-inf) is the area under the concentration-time curve extrapolated to infinity. High values mean high exposure, low ones low exposure. The Cmax is the maximum level reached in the sampled fluid or tissue. The Tmax is the time from dosing to the highest level. For orientation: clearance means the volume of plasma or blood freed of the substance per unit of time. What is called half-life is the time needed for the level to fall by half in the phase considered. Higher therefore signals slow loss. What is called bioavailability is dose-corrected exposure relative to a reference, in per cent.

T1 sequence (P15145 whole entry): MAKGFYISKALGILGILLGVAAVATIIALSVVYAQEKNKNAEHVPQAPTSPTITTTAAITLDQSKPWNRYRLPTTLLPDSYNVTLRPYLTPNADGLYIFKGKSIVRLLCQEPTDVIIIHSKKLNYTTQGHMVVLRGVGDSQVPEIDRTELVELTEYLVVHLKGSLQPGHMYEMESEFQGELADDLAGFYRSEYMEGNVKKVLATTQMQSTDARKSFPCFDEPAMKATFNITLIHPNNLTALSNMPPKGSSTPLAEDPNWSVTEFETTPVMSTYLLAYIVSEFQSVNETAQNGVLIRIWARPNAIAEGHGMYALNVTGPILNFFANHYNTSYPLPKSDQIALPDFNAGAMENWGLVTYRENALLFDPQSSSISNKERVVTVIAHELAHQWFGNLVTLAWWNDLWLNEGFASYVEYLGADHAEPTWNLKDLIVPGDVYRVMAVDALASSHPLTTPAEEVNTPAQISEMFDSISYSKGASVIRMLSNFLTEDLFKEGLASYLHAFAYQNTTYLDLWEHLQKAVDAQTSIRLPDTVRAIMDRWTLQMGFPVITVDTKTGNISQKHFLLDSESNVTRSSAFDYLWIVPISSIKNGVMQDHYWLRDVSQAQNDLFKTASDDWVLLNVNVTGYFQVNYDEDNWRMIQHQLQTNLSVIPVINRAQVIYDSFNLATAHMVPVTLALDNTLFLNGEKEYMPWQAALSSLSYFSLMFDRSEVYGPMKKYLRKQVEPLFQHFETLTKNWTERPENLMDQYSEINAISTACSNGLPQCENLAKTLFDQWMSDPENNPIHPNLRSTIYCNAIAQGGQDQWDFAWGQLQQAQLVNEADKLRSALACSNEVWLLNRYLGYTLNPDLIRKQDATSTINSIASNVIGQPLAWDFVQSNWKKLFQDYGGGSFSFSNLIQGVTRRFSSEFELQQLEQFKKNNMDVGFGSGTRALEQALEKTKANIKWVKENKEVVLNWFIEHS

As for `CC(C)C[C@H](NC(=O)[C@@H](O)[C@H](N)Cc1ccccc1)B1OC(=O)C(CC(=O)O)(CC(=O)O)O1` [BC-05, 2,2′-(2-((R)-1-((2S,3R)-3-amino-2-hydroxy-4-phenylbutanamido)-3-methylbutyl)-5-oxo-1,3,2-dioxaborolane-4,4-diyl)diacetic acid], the 50% inhibitory concentration (IC50) in series [1] was 17.7 ± 0.75 µM; in series [3] it was 650 ± 50 nM. The cell cycle arrest result in series [2] is given as “blocks MM1.S cells in the Sub-G1 phase”. Also, the LD50 at 7 days in series [4] (both sexes, Kunming, mouse, in vivo, single oral dose, healthy mice) stood at 400 µmol/kg. In addition, the “Survival Animals” value in series [4] (single oral 0.27 mmol/kg) is reported as 10/10; in series [4] (single oral 0.36 mmol/kg), 6/10; in series [4] (single oral 0.49 mmol/kg), 4/10; in series [4] (single oral 0.65 mmol/kg), 1/10; in series [4] (single oral 0.86 mmol/kg), 0/10. Also, in series [5], the body weight loss result is given as “did not exhibit any significant body weight loss”. Further, in series [6], the “P21WAF1/Cip1 level (Western blot)” value is listed as “significantly upregulates”. In addition, the CL in series [7] (oral at 10 mg/kg, n = 3) is reported as 7.69 ± 0.66 L/h/kg. Further, the “AUC0–∞” value in series [7] (oral at 10 mg/kg, n = 3, 10 mg/kg) stood at 1307.71 ± 116.74 μg/L∗h. In addition, the AUC(0-inf) in series [7] (male, rat, plasma, iv, 10 mg/kg, i.v. at 10 mg/kg, n = 3) came to 5150 ± 482 ng·h/mL; in series [7] (male, rat, plasma, po, 10 mg/kg, oral at 10 mg/kg, n = 3), 1310 ng·h/mL. In addition, the Cmax in series [7] (setting [8]) turned out to be 10500 ng/mL; in series [7] (setting [9]) it was 373 ± 49.6 ng/mL. The time of peak concentration (Tmax) was 0.03 h in series [7] (setting [8]) and 2 h in series [7] (setting [9]). In series [7] (setting [8]), the clearance was 32.5 mL/min/kg. Further, the figures for the half-life in series [7] (setting [8]) and in series [7] (setting [9]) were 103 ± 40.2 min and 141 ± 73.8 min, respectively. Moreover, the bioavailability in series [7] (male, rat, plasma, oral at 10 mg/kg vs i.v. 10 mg/kg, read-out: F (oral bioavailability)) came to 24.9 ± 4.32%.
